Assay results taken from ChEMBL document CHEMBL4507291 (2021).

Experiments:
[1] = molecular target: Vascular endothelial growth factor receptor 1 (Homo sapiens) (UniProt P17948); assay: FLT1 (VEGFR1) Kinase screen; settings: Compound concentration 1.0 uM
[2] = species on record: Rattus norvegicus; assay: GABAA, Ro-15-1788, Hippocampus Eurofins-Panlabs radioligand binding assay; set-up: ligand concentration 1 nM; settings: Compound concentration 10.0 uM
[3] = molecular target: Estrogen receptor (Homo sapiens) (UniProt P03372); settings: Compound concentration 10.0 uM
[4] = molecular target: T1, Serine/threonine-protein kinase Sgk3 (Homo sapiens) (UniProt Q96BR1); assay: SGKL (SGK3) Kinase screen; settings: Compound concentration 1.0 uM
T1 sequence (whole entry): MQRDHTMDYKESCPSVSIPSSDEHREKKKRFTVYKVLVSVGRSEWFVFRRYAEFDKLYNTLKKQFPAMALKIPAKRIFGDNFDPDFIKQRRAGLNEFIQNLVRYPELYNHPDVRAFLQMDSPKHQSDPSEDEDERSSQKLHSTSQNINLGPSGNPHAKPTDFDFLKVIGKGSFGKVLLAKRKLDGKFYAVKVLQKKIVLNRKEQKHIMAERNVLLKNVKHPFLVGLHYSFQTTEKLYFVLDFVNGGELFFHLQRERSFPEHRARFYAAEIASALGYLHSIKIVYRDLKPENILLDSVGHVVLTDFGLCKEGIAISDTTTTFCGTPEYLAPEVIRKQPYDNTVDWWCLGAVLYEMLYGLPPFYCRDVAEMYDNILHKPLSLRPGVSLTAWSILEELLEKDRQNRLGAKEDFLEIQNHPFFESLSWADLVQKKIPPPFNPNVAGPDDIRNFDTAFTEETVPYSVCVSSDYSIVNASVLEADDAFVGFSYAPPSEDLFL

[5] = molecular target: Histamine H4 receptor (Homo sapiens) (UniProt Q9H3N8); assay: Histamine H4 Eurofins-Panlabs radioligand binding assay; settings: Compound concentration 10.0 uM
[6] = molecular target: Histamine H2 receptor (Homo sapiens) (UniProt P25021); settings: Compound concentration 10.0 uM
[7] = molecular target: Serine/threonine-protein kinase pim-2 (Homo sapiens) (UniProt Q9P1W9); assay: PIM2 Kinase screen; settings: Compound concentration 1.0 uM
[8] = molecular target: Insulin receptor (Homo sapiens) (UniProt P06213); assay: INSR Kinase screen; settings: Compound concentration 1.0 uM
[9] = molecular target: T2, Ephrin type-B receptor 2 (Homo sapiens) (UniProt P29323); assay: EPHB2 Kinase screen; settings: Compound concentration 1.0 uM
T2 sequence (whole entry): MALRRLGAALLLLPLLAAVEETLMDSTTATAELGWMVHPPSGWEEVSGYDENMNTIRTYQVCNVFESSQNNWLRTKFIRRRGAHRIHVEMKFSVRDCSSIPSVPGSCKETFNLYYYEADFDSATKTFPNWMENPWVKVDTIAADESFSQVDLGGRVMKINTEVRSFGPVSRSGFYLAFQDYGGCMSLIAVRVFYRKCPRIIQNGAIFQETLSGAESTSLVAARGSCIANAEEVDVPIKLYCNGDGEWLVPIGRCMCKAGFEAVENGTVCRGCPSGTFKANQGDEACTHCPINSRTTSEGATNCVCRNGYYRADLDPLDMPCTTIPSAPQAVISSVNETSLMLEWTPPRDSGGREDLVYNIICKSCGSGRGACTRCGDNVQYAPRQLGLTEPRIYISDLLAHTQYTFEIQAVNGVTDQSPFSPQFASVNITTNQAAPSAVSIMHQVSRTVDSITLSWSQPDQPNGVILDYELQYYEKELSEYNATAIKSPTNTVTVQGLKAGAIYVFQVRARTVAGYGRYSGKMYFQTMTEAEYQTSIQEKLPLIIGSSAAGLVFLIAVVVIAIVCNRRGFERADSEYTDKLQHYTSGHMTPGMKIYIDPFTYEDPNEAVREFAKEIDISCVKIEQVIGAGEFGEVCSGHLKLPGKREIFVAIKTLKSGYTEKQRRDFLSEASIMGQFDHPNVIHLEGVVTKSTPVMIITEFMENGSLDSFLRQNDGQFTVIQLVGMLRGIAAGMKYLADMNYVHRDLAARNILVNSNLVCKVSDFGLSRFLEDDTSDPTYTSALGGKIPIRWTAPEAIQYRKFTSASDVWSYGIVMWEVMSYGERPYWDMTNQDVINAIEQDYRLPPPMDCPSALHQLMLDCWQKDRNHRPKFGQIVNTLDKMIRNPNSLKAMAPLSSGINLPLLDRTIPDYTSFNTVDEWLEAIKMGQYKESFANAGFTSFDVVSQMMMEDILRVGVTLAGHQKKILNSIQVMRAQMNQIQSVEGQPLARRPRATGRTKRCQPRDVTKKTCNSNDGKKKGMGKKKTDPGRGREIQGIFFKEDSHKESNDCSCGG

[10] = molecular target: Vasopressin V1a receptor (Homo sapiens) (UniProt P37288); settings: Compound concentration 10.0 uM
[11] = molecular target: PI3-kinase p110-delta/p85-alpha (Homo sapiens) (UniProt P27986+O00329); assay: PIK3CD/PIK3R1 (p110 delta/p85 alpha) Kinase screen; format: protein-complex assay; settings: Compound concentration 1.0 uM
[12] = molecular target: T3, Myotonin-protein kinase (Homo sapiens) (UniProt Q09013); assay: DMPK Kinase screen; settings: Compound concentration 1.0 uM
T3 sequence (whole entry): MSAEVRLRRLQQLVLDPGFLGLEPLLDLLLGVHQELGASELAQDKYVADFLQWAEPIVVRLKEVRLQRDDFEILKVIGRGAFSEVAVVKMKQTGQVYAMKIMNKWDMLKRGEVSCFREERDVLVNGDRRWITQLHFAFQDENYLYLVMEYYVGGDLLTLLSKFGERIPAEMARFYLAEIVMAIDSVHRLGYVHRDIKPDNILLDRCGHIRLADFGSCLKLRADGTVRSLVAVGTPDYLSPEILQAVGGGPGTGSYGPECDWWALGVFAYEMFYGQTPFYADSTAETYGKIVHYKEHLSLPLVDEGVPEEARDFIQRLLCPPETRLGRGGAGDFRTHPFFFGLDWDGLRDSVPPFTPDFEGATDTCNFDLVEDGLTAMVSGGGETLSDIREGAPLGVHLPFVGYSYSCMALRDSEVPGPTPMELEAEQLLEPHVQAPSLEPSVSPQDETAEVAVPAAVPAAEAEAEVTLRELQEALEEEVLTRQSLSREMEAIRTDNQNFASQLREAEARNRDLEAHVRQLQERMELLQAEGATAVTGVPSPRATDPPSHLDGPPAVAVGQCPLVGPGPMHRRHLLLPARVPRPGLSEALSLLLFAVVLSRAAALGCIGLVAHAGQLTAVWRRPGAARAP

[13] = molecular target: Cyclin-dependent kinase 1/cyclin B (Homo sapiens) (UniProt P06493+P14635+Q8WWL7+O95067); assay: CDK1/cyclin B Kinase screen; format: protein-complex assay; settings: Compound concentration 1.0 uM
[14] = molecular target: Tyrosine-protein kinase receptor UFO (Homo sapiens) (UniProt P30530); assay: AXL Kinase screen; settings: Compound concentration 1.0 uM
[15] = molecular target: Mitogen-activated protein kinase 9 (Homo sapiens) (UniProt P45984); assay: MAPK9 (JNK2) Kinase screen; settings: Compound concentration 1.0 uM
[16] = molecular target: Tyrosine-protein kinase CSK (Homo sapiens) (UniProt P41240); assay: CSK Kinase screen; settings: Compound concentration 1.0 uM

Measured: inhibition

Chain of Mitogen-activated protein kinase 9 (Homo sapiens) (P45984 whole entry, looked up): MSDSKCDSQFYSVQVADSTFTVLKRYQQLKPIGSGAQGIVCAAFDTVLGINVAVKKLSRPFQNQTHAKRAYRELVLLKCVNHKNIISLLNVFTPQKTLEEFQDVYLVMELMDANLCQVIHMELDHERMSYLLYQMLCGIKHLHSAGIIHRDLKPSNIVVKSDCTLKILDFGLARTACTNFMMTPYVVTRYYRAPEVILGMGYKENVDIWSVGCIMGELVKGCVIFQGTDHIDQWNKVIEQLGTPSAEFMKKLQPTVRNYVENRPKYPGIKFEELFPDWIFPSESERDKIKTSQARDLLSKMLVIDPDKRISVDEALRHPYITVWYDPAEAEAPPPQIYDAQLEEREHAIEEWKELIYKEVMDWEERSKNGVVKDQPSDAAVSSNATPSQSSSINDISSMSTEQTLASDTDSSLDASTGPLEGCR
Chain of Insulin receptor (Homo sapiens) (P06213 28-758 limits assumed): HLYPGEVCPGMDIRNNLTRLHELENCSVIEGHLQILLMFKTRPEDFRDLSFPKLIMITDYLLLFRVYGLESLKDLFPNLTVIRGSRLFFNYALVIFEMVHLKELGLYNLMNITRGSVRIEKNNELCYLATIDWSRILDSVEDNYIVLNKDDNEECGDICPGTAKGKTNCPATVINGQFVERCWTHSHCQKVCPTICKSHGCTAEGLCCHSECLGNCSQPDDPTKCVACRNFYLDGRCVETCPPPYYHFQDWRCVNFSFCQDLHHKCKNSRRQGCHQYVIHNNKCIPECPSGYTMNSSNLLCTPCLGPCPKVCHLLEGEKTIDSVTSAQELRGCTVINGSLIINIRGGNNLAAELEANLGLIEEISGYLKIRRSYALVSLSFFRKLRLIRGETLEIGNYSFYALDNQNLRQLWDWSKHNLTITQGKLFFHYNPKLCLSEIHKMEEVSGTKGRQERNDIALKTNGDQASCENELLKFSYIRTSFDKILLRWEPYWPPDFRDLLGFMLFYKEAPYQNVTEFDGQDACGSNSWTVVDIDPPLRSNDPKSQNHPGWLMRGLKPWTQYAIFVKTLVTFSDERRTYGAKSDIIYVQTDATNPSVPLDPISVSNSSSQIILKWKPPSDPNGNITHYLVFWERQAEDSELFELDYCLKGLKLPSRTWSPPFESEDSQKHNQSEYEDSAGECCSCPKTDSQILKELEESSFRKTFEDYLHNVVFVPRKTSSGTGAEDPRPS
Chain of Insulin receptor (Homo sapiens) (P06213 763-1382 limits assumed): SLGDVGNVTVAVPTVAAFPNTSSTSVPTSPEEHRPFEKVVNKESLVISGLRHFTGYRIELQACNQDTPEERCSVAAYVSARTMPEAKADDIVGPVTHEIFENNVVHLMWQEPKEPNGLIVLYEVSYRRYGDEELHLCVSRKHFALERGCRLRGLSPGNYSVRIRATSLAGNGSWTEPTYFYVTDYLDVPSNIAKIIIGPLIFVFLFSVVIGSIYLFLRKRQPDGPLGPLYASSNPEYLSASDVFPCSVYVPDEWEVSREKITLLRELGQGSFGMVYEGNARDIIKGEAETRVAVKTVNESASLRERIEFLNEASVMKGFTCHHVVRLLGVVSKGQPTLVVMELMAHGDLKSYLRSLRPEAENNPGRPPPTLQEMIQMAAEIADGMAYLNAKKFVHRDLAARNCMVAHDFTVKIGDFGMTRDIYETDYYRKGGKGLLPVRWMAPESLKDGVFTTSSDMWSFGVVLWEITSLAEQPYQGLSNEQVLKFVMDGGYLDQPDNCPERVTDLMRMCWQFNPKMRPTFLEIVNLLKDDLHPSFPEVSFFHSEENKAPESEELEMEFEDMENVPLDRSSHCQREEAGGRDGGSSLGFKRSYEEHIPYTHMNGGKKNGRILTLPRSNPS
Chain of Vascular endothelial growth factor receptor 1 (Homo sapiens) (P17948 whole entry): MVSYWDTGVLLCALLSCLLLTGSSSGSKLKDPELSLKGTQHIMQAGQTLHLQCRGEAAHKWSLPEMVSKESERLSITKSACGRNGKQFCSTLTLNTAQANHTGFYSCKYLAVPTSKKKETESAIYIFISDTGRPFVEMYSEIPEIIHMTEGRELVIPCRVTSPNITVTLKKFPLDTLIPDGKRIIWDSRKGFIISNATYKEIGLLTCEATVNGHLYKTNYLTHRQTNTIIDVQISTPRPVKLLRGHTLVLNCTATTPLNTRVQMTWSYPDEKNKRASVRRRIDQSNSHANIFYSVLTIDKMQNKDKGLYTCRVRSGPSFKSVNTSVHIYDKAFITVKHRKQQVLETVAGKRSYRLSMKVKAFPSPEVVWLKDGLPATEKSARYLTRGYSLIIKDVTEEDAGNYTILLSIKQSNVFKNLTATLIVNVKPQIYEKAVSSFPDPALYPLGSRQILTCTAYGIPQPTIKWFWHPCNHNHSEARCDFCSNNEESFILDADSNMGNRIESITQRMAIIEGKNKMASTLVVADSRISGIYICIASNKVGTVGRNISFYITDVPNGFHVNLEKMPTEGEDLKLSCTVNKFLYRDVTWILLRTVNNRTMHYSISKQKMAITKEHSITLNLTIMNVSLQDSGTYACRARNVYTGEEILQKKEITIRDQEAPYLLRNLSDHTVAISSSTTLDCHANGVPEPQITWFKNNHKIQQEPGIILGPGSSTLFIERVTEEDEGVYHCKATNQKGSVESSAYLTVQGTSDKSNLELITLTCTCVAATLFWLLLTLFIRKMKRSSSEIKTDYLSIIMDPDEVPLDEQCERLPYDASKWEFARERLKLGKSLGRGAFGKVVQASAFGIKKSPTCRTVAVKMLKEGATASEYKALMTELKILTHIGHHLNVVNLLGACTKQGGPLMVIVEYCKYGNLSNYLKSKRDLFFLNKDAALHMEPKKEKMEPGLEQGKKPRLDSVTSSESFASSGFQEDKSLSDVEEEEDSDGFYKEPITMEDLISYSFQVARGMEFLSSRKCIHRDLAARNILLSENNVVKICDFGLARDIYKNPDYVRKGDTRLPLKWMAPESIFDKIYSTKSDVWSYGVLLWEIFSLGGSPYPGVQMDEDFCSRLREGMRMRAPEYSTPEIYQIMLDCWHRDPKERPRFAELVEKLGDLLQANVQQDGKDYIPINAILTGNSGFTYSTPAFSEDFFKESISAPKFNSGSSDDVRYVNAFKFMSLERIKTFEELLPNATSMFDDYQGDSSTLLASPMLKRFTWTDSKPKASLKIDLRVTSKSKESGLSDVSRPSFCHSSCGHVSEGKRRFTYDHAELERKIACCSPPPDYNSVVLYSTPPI
Chain of Vasopressin V1a receptor (Homo sapiens) (P37288 whole entry, looked up): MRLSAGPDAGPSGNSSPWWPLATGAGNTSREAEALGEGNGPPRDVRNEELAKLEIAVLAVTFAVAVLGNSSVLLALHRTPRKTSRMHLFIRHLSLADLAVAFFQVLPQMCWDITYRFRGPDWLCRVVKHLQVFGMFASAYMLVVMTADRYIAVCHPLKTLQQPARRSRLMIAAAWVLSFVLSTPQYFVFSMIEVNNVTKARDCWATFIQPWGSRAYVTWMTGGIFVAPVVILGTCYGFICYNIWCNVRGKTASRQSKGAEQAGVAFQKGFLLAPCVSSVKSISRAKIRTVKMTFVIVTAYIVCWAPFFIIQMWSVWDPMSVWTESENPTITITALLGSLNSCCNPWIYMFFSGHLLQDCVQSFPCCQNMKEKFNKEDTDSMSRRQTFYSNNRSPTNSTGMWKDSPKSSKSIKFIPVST
Chain of Estrogen receptor (Homo sapiens) (P03372 whole entry): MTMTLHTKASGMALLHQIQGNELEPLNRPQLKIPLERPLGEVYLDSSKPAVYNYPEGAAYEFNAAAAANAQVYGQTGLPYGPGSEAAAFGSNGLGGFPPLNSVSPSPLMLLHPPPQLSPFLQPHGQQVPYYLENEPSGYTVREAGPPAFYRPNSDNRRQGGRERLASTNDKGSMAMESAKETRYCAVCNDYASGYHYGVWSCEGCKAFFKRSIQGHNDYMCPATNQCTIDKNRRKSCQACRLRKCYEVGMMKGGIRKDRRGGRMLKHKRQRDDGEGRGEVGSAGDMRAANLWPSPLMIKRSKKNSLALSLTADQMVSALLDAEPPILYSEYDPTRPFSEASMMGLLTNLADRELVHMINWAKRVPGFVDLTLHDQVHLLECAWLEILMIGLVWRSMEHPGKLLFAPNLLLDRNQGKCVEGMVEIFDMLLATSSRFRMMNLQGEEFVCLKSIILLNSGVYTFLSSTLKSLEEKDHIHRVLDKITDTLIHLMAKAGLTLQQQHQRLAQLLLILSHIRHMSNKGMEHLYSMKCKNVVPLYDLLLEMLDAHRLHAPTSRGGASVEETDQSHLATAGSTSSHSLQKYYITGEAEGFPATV
Chain of Histamine H4 receptor (Homo sapiens) (Q9H3N8 whole entry): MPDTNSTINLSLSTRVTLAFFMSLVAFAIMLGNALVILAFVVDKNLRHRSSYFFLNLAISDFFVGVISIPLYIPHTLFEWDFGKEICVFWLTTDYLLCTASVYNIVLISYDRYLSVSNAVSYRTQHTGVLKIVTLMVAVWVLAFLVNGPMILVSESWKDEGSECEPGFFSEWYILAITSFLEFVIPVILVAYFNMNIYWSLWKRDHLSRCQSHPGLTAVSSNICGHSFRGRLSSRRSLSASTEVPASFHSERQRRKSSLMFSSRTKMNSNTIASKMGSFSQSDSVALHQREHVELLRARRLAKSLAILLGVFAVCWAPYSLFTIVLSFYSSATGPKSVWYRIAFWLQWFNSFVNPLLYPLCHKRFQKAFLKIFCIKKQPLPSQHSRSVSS
Chain of Serine/threonine-protein kinase pim-2 (Homo sapiens) (Q9P1W9 whole entry, looked up): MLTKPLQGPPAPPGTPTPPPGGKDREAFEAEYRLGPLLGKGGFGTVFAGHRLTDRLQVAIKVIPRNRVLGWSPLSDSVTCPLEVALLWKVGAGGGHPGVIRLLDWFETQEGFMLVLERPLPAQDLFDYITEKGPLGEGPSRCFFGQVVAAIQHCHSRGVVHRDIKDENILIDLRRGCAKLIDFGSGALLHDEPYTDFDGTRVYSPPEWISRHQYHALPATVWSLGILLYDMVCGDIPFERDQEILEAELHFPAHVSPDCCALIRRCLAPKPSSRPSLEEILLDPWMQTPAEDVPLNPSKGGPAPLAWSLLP

C[C@@H]1CN(c2cc(-c3n[nH]c4ccc(OC5(C)CC5)cc34)ncn2)C[C@H](C)O1 [MLi-2]
inactive: [1] -1.02% | [2] 1% | [3] 8% | [4] 0.213% | [5] -4% | [6] 2% | [7] -1.94% | [8] -0.884% | [9] -1.14% | [10] -9% | [11] 2.08% | [12] 5.71% | [13] 1.29% | [14] 4.79% | [15] 19.7% | [16] 5.55%
